#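 In this assay, cells in 96-well plates receive the compound at five concentrations for 48 hours. Endpoints are linearly interpolated between the surrounding concentrations. GI50: concentration for 50% inhibition of growth. TGI is the concentration that stops growth completely.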
# How the values were obtained:
# Experiment in all cases: NCI anticancer screen, dose series, 48 h
# COLO 205 colon = tested on: COLO 205 colon
# SR leukemia = tested on: SR leukemia
# K-562 leukemia = tested on: K-562 leukemia
# UO-31 renal = tested on: UO-31 renal
# DU-145 prostate = tested on: DU-145 prostate
# SNB-75 CNS = tested on: SNB-75 CNS
# MCF7 breast = tested on: MCF7 breast
# NCI-H23 lung = tested on: NCI-H23 lung
# 786-0 renal = tested on: 786-0 renal
# SF-295 CNS = tested on: SF-295 CNS
# U251 CNS = tested on: U251 CNS
# IGROV1 ovarian = tested on: IGROV1 ovarian
# OVCAR-8 ovarian = tested on: OVCAR-8 ovarian
# SK-MEL-2 melanoma = tested on: SK-MEL-2 melanoma
# HCC-2998 colon = tested on: HCC-2998 colon
# NCI/ADR-RES ovarian = tested on: NCI/ADR-RES ovarian
# T-47D breast = tested on: T-47D breast
# HT29 colon = tested on: HT29 colon
# SN12C renal = tested on: SN12C renal
# SK-OV-3 ovarian = tested on: SK-OV-3 ovarian
# RPMI-8226 leukemia = tested on: RPMI-8226 leukemia
# LOX IMVI melanoma = tested on: LOX IMVI melanoma
# M14 melanoma = tested on: M14 melanoma
# TK-10 renal = tested on: TK-10 renal
# SNB-19 CNS = tested on: SNB-19 CNS
# A549 NSCLC = tested on: A549 NSCLC
# A498 renal = tested on: A498 renal
# MALME-3M melanoma = tested on: MALME-3M melanoma
# SF-539 CNS = tested on: SF-539 CNS
# KM12 colon = tested on: KM12 colon
# BT-549 breast = tested on: BT-549 breast
# SK-MEL-5 melanoma = tested on: SK-MEL-5 melanoma
# HOP-92 NSCLC = tested on: HOP-92 NSCLC
# NCI-H522 lung = tested on: NCI-H522 lung
# OVCAR-3 ovarian = tested on: OVCAR-3 ovarian
# OVCAR-5 ovarian = tested on: OVCAR-5 ovarian
# HCT-15 colon = tested on: HCT-15 colon
# HOP-62 NSCLC = tested on: HOP-62 NSCLC
# CAKI-1 renal = tested on: CAKI-1 renal
# HL-60(TB) leukemia = tested on: HL-60(TB) leukemia
# PC-3 prostate = tested on: PC-3 prostate
# CCRF-CEM leukemia = tested on: CCRF-CEM leukemia
# NCI-H460 lung = tested on: NCI-H460 lung
# UACC-257 melanoma = tested on: UACC-257 melanoma
# OVCAR-4 ovarian = tested on: OVCAR-4 ovarian
# MDA-MB-231 breast = tested on: MDA-MB-231 breast
# HS 578T breast = tested on: HS 578T breast
# EKVX NSCLC = tested on: EKVX NSCLC
# HCT-116 colon = tested on: HCT-116 colon
# MOLT-4 leukemia = tested on: MOLT-4 leukemia
# SK-MEL-28 melanoma = tested on: SK-MEL-28 melanoma
# SF-268 CNS = tested on: SF-268 CNS
# RXF 393 renal = tested on: RXF 393 renal
# ACHN renal = tested on: ACHN renal
# SW-620 colon = tested on: SW-620 colon
# MDA-MB-435 = tested on: MDA-MB-435
# UACC-62 melanoma = tested on: UACC-62 melanoma
# NCI-H226 lung = tested on: NCI-H226 lung
smiles,measurement,setting,value
O=Cc1cn(Cc2cccc(Cl)c2)c2ccccc12,GI50,COLO 205 colon,0.355 µM
same,TGI,COLO 205 colon,14 µM
same,GI50,SR leukemia,23.9 µM
same,TGI,SR leukemia,55.7 µM
same,GI50,K-562 leukemia,2.97 µM
same,TGI,K-562 leukemia,> 56.7 µM
same,GI50,UO-31 renal,5.49 µM
same,TGI,UO-31 renal,21.1 µM
same,GI50,DU-145 prostate,12.5 µM
same,TGI,DU-145 prostate,25 µM
same,GI50,SNB-75 CNS,8.99 µM
same,TGI,SNB-75 CNS,25.1 µM
same,GI50,MCF7 breast,1.85 µM
same,TGI,MCF7 breast,19.4 µM
same,GI50,NCI-H23 lung,9.33 µM
same,TGI,NCI-H23 lung,26.9 µM
same,GI50,786-0 renal,8.95 µM
same,TGI,786-0 renal,24.4 µM
same,GI50,SF-295 CNS,0.948 µM
same,TGI,SF-295 CNS,14.2 µM
same,GI50,U251 CNS,9.61 µM
same,TGI,U251 CNS,21.8 µM
same,GI50,IGROV1 ovarian,0.263 µM
same,TGI,IGROV1 ovarian,14.7 µM
same,GI50,OVCAR-8 ovarian,10.3 µM
same,TGI,OVCAR-8 ovarian,31.3 µM
same,GI50,SK-MEL-2 melanoma,7.7 µM
same,TGI,SK-MEL-2 melanoma,26.4 µM
same,GI50,HCC-2998 colon,12.5 µM
same,TGI,HCC-2998 colon,26.2 µM
same,GI50,NCI/ADR-RES ovarian,7.99 µM
same,TGI,NCI/ADR-RES ovarian,28.2 µM
same,GI50,T-47D breast,0.736 µM
same,TGI,T-47D breast,13.4 µM
same,GI50,HT29 colon,13 µM
same,TGI,HT29 colon,32.3 µM
same,GI50,SN12C renal,10.7 µM
same,TGI,SN12C renal,23.5 µM
same,GI50,SK-OV-3 ovarian,1.8 µM
same,TGI,SK-OV-3 ovarian,16 µM
same,GI50,RPMI-8226 leukemia,4.76 µM
same,TGI,RPMI-8226 leukemia,25.2 µM
same,GI50,LOX IMVI melanoma,7.4 µM
same,TGI,LOX IMVI melanoma,21 µM
same,GI50,M14 melanoma,11.4 µM
same,TGI,M14 melanoma,26.9 µM
same,GI50,TK-10 renal,0.136 µM
same,TGI,TK-10 renal,1.27 µM
same,GI50,SNB-19 CNS,12.9 µM
same,TGI,SNB-19 CNS,27.3 µM
same,GI50,A549 NSCLC,15.9 µM
same,TGI,A549 NSCLC,48.5 µM
same,GI50,A498 renal,0.135 µM
same,TGI,A498 renal,0.299 µM
same,GI50,MALME-3M melanoma,13.5 µM
same,TGI,MALME-3M melanoma,33.8 µM
same,GI50,SF-539 CNS,14.7 µM
same,TGI,SF-539 CNS,28 µM
same,GI50,KM12 colon,14.7 µM
same,TGI,KM12 colon,35.1 µM
same,GI50,BT-549 breast,5.25 µM
same,TGI,BT-549 breast,18.6 µM
same,GI50,SK-MEL-5 melanoma,4.1 µM
same,TGI,SK-MEL-5 melanoma,17.4 µM
same,GI50,HOP-92 NSCLC,6.19 µM
same,TGI,HOP-92 NSCLC,20.8 µM
same,GI50,NCI-H522 lung,20.3 µM
same,TGI,NCI-H522 lung,45.7 µM
same,GI50,OVCAR-3 ovarian,2.7 µM
same,TGI,OVCAR-3 ovarian,16.6 µM
same,GI50,OVCAR-5 ovarian,0.0263 µM
same,TGI,OVCAR-5 ovarian,0.504 µM
same,GI50,HCT-15 colon,11.6 µM
same,TGI,HCT-15 colon,25.2 µM
same,GI50,HOP-62 NSCLC,2.57 µM
same,TGI,HOP-62 NSCLC,19.5 µM
same,GI50,CAKI-1 renal,0.214 µM
same,TGI,CAKI-1 renal,1.89 µM
same,GI50,HL-60(TB) leukemia,7.5 µM
same,TGI,HL-60(TB) leukemia,29.9 µM
same,GI50,PC-3 prostate,5.76 µM
same,TGI,PC-3 prostate,22.4 µM
same,GI50,CCRF-CEM leukemia,9.99 µM
same,TGI,CCRF-CEM leukemia,50.3 µM
same,GI50,NCI-H460 lung,< 0.0112 µM
same,TGI,NCI-H460 lung,15.5 µM
same,GI50,UACC-257 melanoma,1.05 µM
same,TGI,UACC-257 melanoma,3.63 µM
same,GI50,OVCAR-4 ovarian,2.88 µM
same,TGI,OVCAR-4 ovarian,18.3 µM
same,GI50,MDA-MB-231 breast,7.72 µM
same,TGI,MDA-MB-231 breast,21.5 µM
same,GI50,HS 578T breast,7.27 µM
same,TGI,HS 578T breast,34.1 µM
same,GI50,EKVX NSCLC,9.9 µM
same,TGI,EKVX NSCLC,25 µM
same,GI50,HCT-116 colon,2.39 µM
same,TGI,HCT-116 colon,16 µM
same,GI50,MOLT-4 leukemia,6.69 µM
same,TGI,MOLT-4 leukemia,31.8 µM
same,GI50,SK-MEL-28 melanoma,15.9 µM
same,TGI,SK-MEL-28 melanoma,31.1 µM
same,GI50,SF-268 CNS,11.7 µM
same,TGI,SF-268 CNS,26.3 µM
same,TGI,RXF 393 renal,> 33 µM
same,GI50,ACHN renal,12.9 µM
same,TGI,ACHN renal,26.8 µM
same,GI50,SW-620 colon,7.37 µM
same,TGI,SW-620 colon,23.1 µM
same,GI50,MDA-MB-435,12.2 µM
same,TGI,MDA-MB-435,28.5 µM
same,GI50,UACC-62 melanoma,0.533 µM
same,TGI,UACC-62 melanoma,6.45 µM
same,TGI,NCI-H226 lung,0.0499 µM
